Experimental data from PubChem BioAssay AID1817 (Sanford-Burnham Center for Chemical Genomics, 2009).
Active and inactive are the calls of the source.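 Rule for the calls: active = displacement of at least 50% at 20 µM, with a fluorescence ratio check between 0.3 and a set limit; inactive = the rest.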

Molecular target: E3 ubiquitin-protein ligase SIAH1 (Homo sapiens) (UniProt Q8IUQ4)
Experiment: Siah-1 peptide-binding antagonists, primary screen, biochemical, fluorescence polarization, rhodamine-plectin, uHTS (AID 1817)
Conditions: Siah-1 / rhodamine-plectin peptide fluorescence polarization

Sequence of E3 ubiquitin-protein ligase SIAH1 (Homo sapiens) (Q8IUQ4 whole entry, looked up): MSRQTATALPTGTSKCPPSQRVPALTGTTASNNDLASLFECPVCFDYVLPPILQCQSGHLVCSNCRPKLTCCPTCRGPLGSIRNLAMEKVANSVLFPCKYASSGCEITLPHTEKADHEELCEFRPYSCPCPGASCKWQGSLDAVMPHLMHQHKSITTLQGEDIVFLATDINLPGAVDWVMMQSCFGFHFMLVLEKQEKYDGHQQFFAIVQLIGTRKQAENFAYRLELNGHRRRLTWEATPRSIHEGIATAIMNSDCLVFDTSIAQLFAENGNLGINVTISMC

SMILES | IC50
COc1ccc(C(C(=O)NCc2ccccc2)N(Cc2ccco2)C(=O)c2cnccn2)cc1 (stereo not given) | > 200 µM (inactive)
O=C(Nc1cccc(Oc2ccc(C(=O)O)c(C(=O)O)c2)c1)c1ccc(-c2ccccc2)cc1 | 8.53 µM
COc1cc(CNc2ccc(O)cc2)cc(Br)c1OCc1ccccc1F | inactive
CCCCn1c(NS(=O)(=O)c2ccc(C)cc2)c(S(=O)(=O)c2ccccc2)c2nc3ccccc3nc21 | > 200 µM (inactive)
C=CCc1cccc2cc(C(=O)Nc3ccc(CC(=O)O)cc3)c(=O)oc12 | 17.3 µM
Cc1ccccc1NC(=O)CN1C(=O)N/C(=C\c2ccccc2OCc2ccc(C(=O)O)cc2)C1=O | 11.5 µM
COC(=O)C1CC(=O)N(c2ccc(OCc3ccccc3Cl)cc2)C1 (stereo not given) | > 200 µM (inactive)
CC(=O)c1ccc(S(=O)(=O)Nc2ccc(-c3ccc4nnc(C)n4n3)cc2)cc1 | > 200 µM (inactive)
CCOc1cc(/C=C(\C#N)C(=O)Nc2ccccc2C(=O)O)ccc1OC(=O)c1ccc(C)cc1 | > 200 µM (inactive)
CN1C(=O)NC(c2ccccc2[N+](=O)[O-])C2=C1CCCC2=O (stereo not given) | 10.3 µM
O=C(Nc1cc([N+](=O)[O-])ccc1N1CCOCC1)c1cccs1 | > 200 µM (inactive)
CC1CCN(S(=O)(=O)c2nnc(NC(=O)c3cccc(Cl)c3)s2)CC1 | > 200 µM (inactive)
O=C(CSc1ccc(Br)c2cccc(Cl)c12)Nc1ccc(S(=O)(=O)Nc2nccs2)cc1 | > 200 µM (inactive)
COC(=O)c1c(C(=O)OC)c2cccc3cc(-c4ccccc4)c4ccc1c4n32 | inactive
Cc1ccc(OCCCN2CCOCC2)cc1 | > 200 µM (inactive)
Cc1ccc(C(=O)NC2CC3CCCC(C2)N3C(=O)NC2CCCCC2)cc1 (stereo not given) | > 200 µM (inactive)
Cc1cc(C)n(-c2ccc(Cl)c(C(=O)Nc3cc(C(F)(F)F)ccc3Cl)n2)n1 | > 200 µM (inactive)
O=c1[nH]n(-c2ccc([N+](=O)[O-])cc2)c(=O)c2ccccc12 | 15.7 µM
CC(C)(C)c1ccc(C(CC(=O)O)NC(=O)Cc2ccc(F)cc2)cc1 (stereo not given) | 25.6 µM
Cc1coc2c(C)c3oc(=O)c(CCC(=O)N[C@@H](C)C(=O)N[C@@H](Cc4ccccc4)C(=O)O)c(C)c3cc12 | 16.8 µM
CC12CCC(C(=O)NCc3ccc(Cl)cc3)(OC1=O)C2(C)C (stereo not given) | > 200 µM (inactive)
Nc1ccc(O)c2c1C(=O)c1ccccc1C2=O | 1.52 µM
c1ccc(C(c2ccccc2)N2CCN(C(c3ccccn3)c3nnnn3C3CCCC3)CC2)cc1 (stereo not given) | > 200 µM (inactive)
O=C(CC1Nc2cccc3cccc(c23)NC1=O)Nc1ccccc1 (stereo not given) | > 200 µM (inactive)

SMILES | IC50
COc1cc(/C=C2/SC(=S)N(Cc3ccccc3)C2=O)cc(Cl)c1O | > 200 µM (inactive)
Nc1c(C(=O)NCc2ccco2)c2nc3ccccc3nc2n1Cc1ccccc1 | > 200 µM (inactive)
Cc1ccc(S(=O)(=O)N2CCC(=O)N(C(COCc3cccc(C)c3)Cc3ccccc3)CC2)cc1 (stereo not given) | > 200 µM (inactive)
Cc1ccccc1-c1nc2c3ccccc3nc(=S)n2[nH]1 | > 200 µM (inactive)
COC(=O)c1ccc2c(c1)C(C)(C)C(/C=C/c1ccccc1O)=[N+]2C | > 200 µM (inactive)
CC(=O)c1ccc(NC(=O)CC2Nc3cccc4cccc(c34)NC2=O)cc1 (stereo not given) | > 200 µM (inactive)
O=S(=O)(O)c1cc(O)c2c(O)c(N=Nc3cc(Cl)ccc3O)c(S(=O)(=O)O)cc2c1 | 5.13 µM
O=C(CCn1ccc2ccccc21)NC1CCCc2ccccc21 (stereo not given) | > 200 µM (inactive)
O=c1ccc2c(-c3ccccc3)c3ccc(O)cc3oc-2c1 | 11.1 µM
C=C(C)Cn1c(N2CCN(CC)CC2)nc2c1c(=O)[nH]c(=O)n2C | > 200 µM (inactive)
O=C(O)CCCCN1C(=O)/C(=C\c2ccc(OCc3ccccc3)c(OCc3ccccc3)c2)SC1=S | > 200 µM (inactive)
O=c1[nH]c(-c2ccc(F)cc2)nc2c1sc(=S)n2-c1ccccc1 | 19.6 µM
CCOc1ccccc1CNc1ccc(O)cc1 | inactive
CCN(CC)CCOC(=O)c1ccc(N/C=C(/C#N)c2nc(-c3ccc(OC)c(OC)c3)cs2)cc1 | 12.5 µM
Cc1cc2cc(CNC(=O)c3ccc(S(=O)(=O)N4CCCCC4)cc3)ccc2n1C | > 200 µM (inactive)
CSc1ccccc1C(=O)NC(C)c1ccc(-n2ccnc2)cc1 (stereo not given) | > 200 µM (inactive)
COC/C=C/C1=CC2=CC(=O)C(C)(OC(=O)c3ccco3)C(=O)C2=CO1 (stereo not given) | inactive
Cc1cc(Cl)ccc1NC(=O)CN1CCC(C(O)(c2ccccc2)c2ccccc2)CC1 | > 200 µM (inactive)
C=CCn1c(NS(=O)(=O)c2ccccc2)c(S(=O)(=O)c2ccc(C)cc2)c2nc3ccccc3nc21 | > 200 µM (inactive)
Cc1cc(C)n2ncc(C(=O)Nc3ccc4c(c3)OCO4)c2n1 | > 200 µM (inactive)
COc1cccc2cc(C(=O)N3CCc4ccccc43)c(=O)oc12 | > 200 µM (inactive)
COC(=O)C1C=C2c3cccc4[nH]cc(c34)CC2N(C)C1 (stereo not given) | inactive
CC1CCN(S(=O)(=O)c2ccc3c(c2)c(=O)c(C(=O)NCc2ccccc2Cl)cn3C)CC1 | > 200 µM (inactive)
C[N+]1(CCNC(=O)/C=N/O)CCCCC1 | > 200 µM (inactive)

SMILES | IC50
N#CC1C=Cc2ccccc2N1C(=O)c1ccccc1 (stereo not given) | > 200 µM (inactive)
O=S(=O)(Nc1nc2ccccc2nc1Nc1ccc(N2CCOCC2)cc1)c1cc(Cl)ccc1Cl | > 200 µM (inactive)
COC(=O)c1cc(NC(=O)c2ccccc2)c(=O)oc1/C=C/Nc1ccc(Oc2ccccc2)cc1 | > 200 µM (inactive)
O=S(=O)(Nc1c(S(=O)(=O)c2ccccc2)c2nc3ccccc3nc2n1C1CCCCC1)c1ccccc1 | > 200 µM (inactive)
COc1cccc(CCC(=O)N(C)C2CCCN(Cc3ccccc3F)C2)c1 (stereo not given) | > 200 µM (inactive)
O=c1[nH]c2ccc(S(=O)(=O)N3CCCCC3)cc2s1 | > 200 µM (inactive)
COc1cc(CC(=O)NCc2ccc3c(c2)OCO3)cc(OC)c1OC | > 200 µM (inactive)
CCCCN(Cc1cc2cc(OC)ccc2[nH]c1=O)S(=O)(=O)c1ccc(C)cc1 | > 200 µM (inactive)
CC1CCN(C(=O)C2CCC(C)(C(=O)O)C2(C)C)CC1 (stereo not given) | > 200 µM (inactive)
N#C/C(=C\c1c(F)cccc1Cl)C(=O)NC1CC1 | > 200 µM (inactive)
COc1cc(/C=C(\C#N)c2nc3ccccc3[nH]2)ccc1OC(=O)c1ccco1 | > 200 µM (inactive)
COc1ccc(CNC(=S)Nc2cc(OC)ccc2OC)cc1 | > 200 µM (inactive)
C[C@]12CCC3C(CC=C4C[C@@H](O)CC[C@@]43C)C1CCC2[C@]1(C)CCC(=O)O1 (stereo not given in full) | > 200 µM (inactive)
CCN(CC)c1ccc(C=N/C(C#N)=C(\N)C#N)cc1 | > 200 µM (inactive)
O=C(O)c1cc(O)c2c(c1)C(=O)c1cccc(O)c1C2=O | inactive
CCCCNc1nnc(Cc2ccc(Cl)cc2)c(=O)[nH]1 | > 200 µM (inactive)
O=C(Nc1nc(-c2cc3ccccc3oc2=O)cs1)c1ccco1 | > 200 µM (inactive)
Cc1c(C(=O)O)sc2nc(CSc3ncc(C(F)(F)F)cc3Cl)[nH]c(=O)c12 | > 200 µM (inactive)
CCCCn1c(NC(=O)c2ccco2)c(S(=O)(=O)c2ccc(C)cc2)c2nc3ccccc3nc21 | > 200 µM (inactive)
COCCCn1c(N)c(C(=O)NCc2ccco2)c2nc3ccccc3nc21 | > 200 µM (inactive)
COc1ccc(CCNC(=O)c2ccc(S(=O)(=O)N(C)c3ccccc3)cc2)cc1OC | > 200 µM (inactive)
Cc1ccc(NC(=O)CCC(=O)NNC(=O)c2ccccc2[N+](=O)[O-])c(C)c1 | > 200 µM (inactive)
Cc1ccc2c(c1)N(CC(=O)NCCc1ccc(Cl)cc1)C(=O)c1cccnc1O2 | > 200 µM (inactive)
O=C(O)CCCNc1cc(N2CCN(C(=O)c3ccco3)CC2)c2noc3c2c1C(=O)c1ccccc1-3 | 4.21 µM

SMILES | IC50
CCc1nnc(NS(=O)(=O)c2ccc(NC(=S)NC(=O)/C=C/c3ccc(C(C)C)cc3)cc2)s1 | 19.2 µM
O=C(NCc1ccc(Cl)cc1)c1cc(-c2cccs2)on1 | 8.13 µM
NS(=O)(=O)c1ccc(NS(=O)(=O)c2ccc(NC(=O)c3ccc(-c4ccccc4)cc3)cc2)cc1 | 1.56 µM
O=C(Nc1ccccc1N1CCCCC1)c1ccc(-c2cccc(Cl)c2)o1 | > 200 µM (inactive)
O=C(Nc1ccc(Cl)cc1)OCc1cn(-c2ccccc2)nn1 | > 200 µM (inactive)
CCCCn1c(NC(=O)c2ccc(Br)o2)c(C(=O)OCC)c2nc3ccccc3nc21 | > 200 µM (inactive)
COc1ccc(CCNC(=O)CCC(=O)N2CCOc3ccc(C)cc32)cc1OC | > 200 µM (inactive)
O=C1CCCC(O)=C1N=Nc1ccc(C(=O)O)cc1 | > 200 µM (inactive)
CCC(C)[C@H](NC(=O)N1CCn2c1nc1ccccc12)C(=O)NCCc1ccc(OC)c(OC)c1 (stereo not given in full) | > 200 µM (inactive)
COCCOC(=O)c1sc(=S)n(CCOC)c1N | 8.07 µM
CCNc1ccc(C(=O)O)cc1N | inactive
CC(NC(=O)Nc1ccc(O)cc1)(C(F)(F)F)C(F)(F)F | > 200 µM (inactive)
O=C(Nc1ccc(Oc2ccsc2C(=O)O)cc1)c1ccccc1F | > 200 µM (inactive)
COCCCNc1c2c3c(cccc3[nH]c1=O)C(=O)c1ccccc1-2 | > 200 µM (inactive)
NS(=O)(=O)c1ccc(NC(=O)c2cccc(N3C(=O)c4ccccc4C3=O)c2)cc1 | inactive
CC(C)COc1ccc(-c2nn(-c3ccccc3)cc2/C=C2/SC(=S)N(CC(=O)O)C2=O)cc1 | > 200 µM (inactive)
CS(=O)(=O)N1CCN(c2ccc([N+](=O)[O-])c(SCc3ccco3)c2)CC1 | > 200 µM (inactive)
O=C(Nc1ccc(Cl)cc1)c1ccc(S(=O)(=O)N2CCOCC2)cc1 | > 200 µM (inactive)
Cc1cc(C)nc(N=Nc2c(O)n(Cc3ccc(Cl)cc3)c3ccccc23)n1 | > 200 µM (inactive)
S=c1[nH]nc(Cc2cccc3ccccc23)n1-c1ccccc1 | > 200 µM (inactive)
Cc1ccn2c(C(=O)CSc3ccc(Cl)cc3Cl)c(C)nc2c1 | > 200 µM (inactive)
Cc1ccc(C(=O)COc2ccccc2C(=O)Nc2ccccc2)cc1 | > 200 µM (inactive)
CCn1c(O)c(C=Nc2ccc(N3CCOCC3)cc2)c(=O)n(CC)c1=S | > 200 µM (inactive)
